Measured values reported in patent publication US20090176839A1, “FORMULATIONS OF 3-(6-(1-(2,2-DIFLUOROBENZO[D][1,3]DIOXOL-5-YL) CYCLOPROPANECARBOXAMIDO)-3-METHYLPYRIDIN-2-YL)BENZOIC ACID” (priority 2007, published 2009).
Read-outs that look alike come from different tables or passages of the source.

How the values were obtained:
dogs = conditions: dog, in vivo
Experimental: (§1) Repeat-dose oral toxicity studies of 7- and 14-days duration have been conducted in rats (up to 600 mg/kg/day) and dogs (up to 200 mg/kg/day).

[1] = male, beagle, dog, in vivo, 200 mg/kg
[2] = Toxicokinetics in acute oral toxicity study in mice; type: in vivo; conditions: plasma
Text: Compound 1 was well absorbed in mice with time to reach maximum plasma concentrations (tmax) ranging from 0.5 to 2.0 hr. […] There were no significant gender-related effects in Compound 1 exposures noted.

rats = conditions: rat, in vivo, 14 days
Experimental: as §1

[3] = test system: gastrointestinal, respiratory, CNS, or cardiovascular systems; test: Safety pharmacology studies (ICH S7A/S7B battery); type: in vivo, rat, dog
in vivo = conditions: male, beagle, dog, 200 mg/kg
[4] = Tissue distribution in male rats after single oral dose of 75 mg/kg; type: in vivo, male Sprague Dawley rats; conditions: 75 mg/kg oral; for Kp at 1 h / Kp at 4 hr / Kp at 12 hr / Kp / Kp at 48 hr: po, 75 mg/kg
Experimental: Following a single oral administration of unlabelled Compound 1 to rats, the highest distribution was to the liver followed by lung, pancreas and brain with tissue-to-plasma ratios of 0.73, 0.19, 0.13 and 0.02, respectively, at one hour following oral administration of 75 mg/kg. Elimination of Compound 1 was nearly complete from all tissues 48 hours after administration (concentrations less than 1 μg/mL). Although the distribution to the lung is low relative to plasma, the concentrations measured in lung at low and moderate doses are predicted to be efficacious.

hERG = hERG (Homo sapiens, UniProt Q12809); test: hERG channel competitive binding (3H-astemizole); conditions: probe 3H-astemizole
[5] = Stability of 6 mg/mL aqueous methylcellulose-polysorbate 80 suspension (HPLC, XRPD, NMR); type: physicochemical; conditions: for Peak purity %: 6 mg/mL aqueous methylcellulose-polysorbate 80 suspension, room temperature
Experimental: Methylcellulose (0.5 g) was combined with 99.0 g of purified water in a beaker and stirred in a 60-70° C. water bath for 30′-1 hr. The solution was stirred in a 0° C. ice/water bath for another 30′ or until clear. Polysorbate 80 (0.5 g) was added and stirring at room temperature followed for 30′-1 hr or until a clear solution was obtained.
The desired amount of 0.5% methylcellulose and 0.5% polysorbate 80 stock solution for making a 6 mg/mL based on free base (6.48 mg/mL based on HCl salt) was transferred into the vial and sonicated for 20 minutes with alternate stirring for 1-2 minutes. The solution was homogenized for approximately 1-2 minutes.
As with 0.5% methylcellulose formulation prepared previously, the HCl salt was quickly converted to Compound 1 in Form I at T(0) resulting in a crystalline free form suspension as shown by XRPD (FIG. 10) and confirmed by ^1H NMR analysis (FIGS. 11-13). Additionally, the solid form in suspension at T(0) was recovered an subjected to HPLC analysis: […]

[6] = Sprague Dawley, rat, male rats, Brain
[7] = Sprague Dawley, rat, male rats, Liver
[8] = Sprague Dawley, rat, male rats, Lung
[9] = Sprague Dawley, rat, male rats, Pancreas
[10] = Sprague Dawley, rat, male rats, Plasma

hERG, sequence (Q12809 whole entry): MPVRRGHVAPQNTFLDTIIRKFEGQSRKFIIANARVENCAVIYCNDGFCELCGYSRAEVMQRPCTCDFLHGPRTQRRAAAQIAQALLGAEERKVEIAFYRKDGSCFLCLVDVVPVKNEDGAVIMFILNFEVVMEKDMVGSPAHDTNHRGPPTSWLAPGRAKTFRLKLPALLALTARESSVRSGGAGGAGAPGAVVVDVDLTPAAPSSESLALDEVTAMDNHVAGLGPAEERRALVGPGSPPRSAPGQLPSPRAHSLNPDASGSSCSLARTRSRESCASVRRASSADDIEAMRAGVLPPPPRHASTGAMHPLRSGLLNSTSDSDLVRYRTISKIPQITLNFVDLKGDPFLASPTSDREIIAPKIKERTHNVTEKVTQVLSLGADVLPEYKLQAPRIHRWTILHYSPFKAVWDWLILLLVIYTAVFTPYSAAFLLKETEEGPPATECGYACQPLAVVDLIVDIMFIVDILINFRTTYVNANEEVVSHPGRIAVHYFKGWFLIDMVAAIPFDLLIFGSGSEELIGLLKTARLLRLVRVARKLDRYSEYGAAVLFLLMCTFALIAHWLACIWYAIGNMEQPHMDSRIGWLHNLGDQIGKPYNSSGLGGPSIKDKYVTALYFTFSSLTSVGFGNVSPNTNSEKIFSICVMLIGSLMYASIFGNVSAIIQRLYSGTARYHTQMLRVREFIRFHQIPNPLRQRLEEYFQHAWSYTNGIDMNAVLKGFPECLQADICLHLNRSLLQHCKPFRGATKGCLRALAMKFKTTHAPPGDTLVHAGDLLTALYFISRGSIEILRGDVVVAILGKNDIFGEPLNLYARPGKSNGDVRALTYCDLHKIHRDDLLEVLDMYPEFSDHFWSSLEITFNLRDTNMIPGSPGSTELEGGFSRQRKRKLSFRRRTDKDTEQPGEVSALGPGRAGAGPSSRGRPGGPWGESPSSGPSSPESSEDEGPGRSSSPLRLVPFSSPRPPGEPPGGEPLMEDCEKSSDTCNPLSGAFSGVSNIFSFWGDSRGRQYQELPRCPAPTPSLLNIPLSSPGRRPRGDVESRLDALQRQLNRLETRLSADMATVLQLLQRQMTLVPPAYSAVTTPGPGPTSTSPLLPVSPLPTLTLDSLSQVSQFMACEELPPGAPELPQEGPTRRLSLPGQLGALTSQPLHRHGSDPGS

For Cc1ccc(NC(=O)C2(c3ccc4c(c3)OC(F)(F)O4)CC2)nc1-c1cccc(C(=O)O)c1 [Compound 1, 3-(6-(1-(2,2-difluorobenzo[d][1,3]dioxol-5-yl)cyclopropanecarboxamido)-3-methylpyridin-2-yl)benzoic acid], the “ECG tracings and opthalmology examinations” value (dogs) was “within normal limits”, the “RBC parameters, decreases” value (dogs) was 7-14% and the “total cholesterol, decreases” value (dogs) was 21-29%. For the same compound, the “triglycerides, decreases” value (dogs) was 44-46%, the light microscopy findings (dogs; 14 days) was “no significant Compound 1 related findings” and the “dosage tolerated without toxic effect” value (dogs; po, 14 days) was “up to 200 mg/kg/day”. For the same compound, the F [1] was 20%, the tlast [1] was 48 h and the Cmax ([2]; CD-1, mouse, 2000 mg/kg, Female) was 325000 ng/mL. For the same compound, the AUC(0-t) ([2]; CD-1, mouse, 2000 mg/kg, Female, read-out: AUC0-24 h) was 2900 µg·h/mL, the Tmax ([2]; CD-1, mouse, 2000 mg/kg, Female, read-out: tmax) was 1 h and the Cmax ([2]; CD-1, mouse, 2000 mg/kg, Male) was 264000 ng/mL. It also gave an AUC(0-t) ([2]; CD-1, mouse, 2000 mg/kg, Male, read-out: AUC0-24 h) of 2680 µg·h/mL, a Tmax ([2]; CD-1, mouse, 2000 mg/kg, Male, read-out: tmax) of 1 h and a half-life ([2]; both sexes, mouse, 500 to 2000 mg/kg, read-out: elimination half-life (t1/2)) of 4.1 to 8.6 h. It also gave a Tmax ([2]; both sexes, mouse, 500 to 2000 mg/kg, read-out: time to reach maximum plasma concentrations (tmax)) of 0.5 to 2 h, an AUC(0-t) ([2]; female, mouse, females at 500 mg/kg, read-out: AUC0-24hr) of 1840 µg·h/mL and a Cmax ([2]; female, mouse, females at 2000 mg/kg) of 325000 ng/mL. The Cmax ([2]; male, mouse, males at 500 mg/kg) was 142000 ng/mL, the “human equivalent dose (based on body surface area)” value (rats) was “at least 95 mg/kg” and the “human total daily dose equivalent” value (rats) was “approximately 5700 mg”. For the same compound, the “light microscopy of more than 40 organs and tissues” value (rats) was “no significant Compound 1 related findings”, the “dosage tolerated without toxic effects” value (rats; po) was “up to 600 mg/kg/day” and the “cardiovascular or respiratory findings” value ([3]; oral doses up to 1000 mg/kg in the rat and 200 mg/kg in the dog) was “no cardiovascular or respiratory findings”. For the same compound, the “adverse effects on gastrointestinal, respiratory, CNS, or cardiovascular systems” value ([3]; oral formulations) was “unlikely to cause adverse effects”, the AUC(0-inf) (in vivo) was 288 µg·h/mL and the Cmax (in vivo) was 52000 ng/mL. It also gave a concentration at 48 hr (in vivo) of 63 ng/mL, a Tmax (in vivo; po) of 1.7 h and a half-life (in vivo; po) of 6.1 h. The Cmax [4, 6] was 957 ng/mL, the Tmax [4, 6] was 4 h and the AUC ([4]; Sprague Dawley, rat, male rats, Brain, footnote a: AUCall) was 9.3 µg·h/mL. For the same compound, the concentration at 12 hr ([4]; Sprague Dawley, rat, male rats, Brain, read-out: Clast) was 546 ng/mL, the AUC(0-inf) [4, 7] was 885 µg·h/mL and the Cmax [4, 7] was 38100 ng/mL. It also gave a Tmax [4, 7] of 4 h, a half-life [4, 7] of 8.06 h and a concentration at 48 hr ([4]; Sprague Dawley, rat, male rats, Liver, read-out: Clast) of 965 ng/mL. It also gave an AUC(0-inf) [4, 8] of 187 µg·h/mL, a Cmax [4, 8] of 9140 ng/mL and a Tmax [4, 8] of 1 h. It also gave a half-life [4, 8] of 7.79 h, a concentration at 48 hr ([4]; Sprague Dawley, rat, male rats, Lung, read-out: Clast) of 189 ng/mL and an AUC(0-inf) [4, 9] of 132 µg·h/mL. The Cmax [4, 9] was 6830 ng/mL, the Tmax [4, 9] was 4 h and the half-life [4, 9] was 6.87 h. For the same compound, the concentration at 48 hr ([4]; Sprague Dawley, rat, male rats, Pancreas, read-out: Clast) was 86 ng/mL, the AUC(0-inf) [4, 10] was 980 µg·h/mL and the Cmax [4, 10] was 59100 ng/mL. For the same compound, the Tmax [4, 10] was 4 h, the half-life [4, 10] was 6.15 h and the concentration at 48 hr ([4]; Sprague Dawley, rat, male rats, Plasma, read-out: Clast) was 542 ng/mL. The “Tissue Concentrations, Brain” value ([4]; male rats, 1 hr) was 0.93 μg/mL or μg/g, the “Tissue Concentrations, Liver” value ([4]; male rats, 1 hr) was 34.7 μg/mL or μg/g and the “Tissue Concentrations, Lung” value ([4]; male rats, 1 hr) was 9.14 μg/mL or μg/g. For the same compound, the “Tissue Concentrations, Pancreas” value ([4]; male rats, 1 hr) was 6.03 μg/mL or μg/g, the “Tissue Concentrations, Plasma” value ([4]; male rats, 1 hr) was 47.3 μg/mL or μg/g and the “Tissue Concentrations, Brain” value ([4]; male rats, 4 hr) was 0.96 μg/mL or μg/g. For the same compound, the “Tissue Concentrations, Liver” value ([4]; male rats, 4 hr) was 38.1 μg/mL or μg/g, the “Tissue Concentrations, Lung” value ([4]; male rats, 4 hr) was 8.99 μg/mL or μg/g and the “Tissue Concentrations, Pancreas” value ([4]; male rats, 4 hr) was 6.83 μg/mL or μg/g. The “Tissue Concentrations, Plasma” value ([4]; male rats, 4 hr) was 59.1 μg/mL or μg/g, the “Tissue Concentrations, Brain” value ([4]; male rats, 12 hr) was 0.55 μg/mL or μg/g and the “Tissue Concentrations, Liver” value ([4]; male rats, 12 hr) was 26.3 μg/mL or μg/g. The “Tissue Concentrations, Lung” value ([4]; male rats, 12 hr) was 5.17 μg/mL or μg/g, the “Tissue Concentrations, Pancreas” value ([4]; male rats, 12 hr) was 3.65 μg/mL or μg/g and the “Tissue Concentrations, Plasma” value ([4]; male rats, 12 hr) was 24.8 μg/mL or μg/g. For the same compound, the “Tissue Concentrations, Brain” value ([4]; male rats, 48 hr) was “BLQ”, the “Tissue Concentrations, Liver” value ([4]; male rats, 48 hr) was 0.97 μg/mL or μg/g and the “Tissue Concentrations, Lung” value ([4]; male rats, 48 hr) was 0.19 μg/mL or μg/g. For the same compound, the “Tissue Concentrations, Pancreas” value ([4]; male rats, 48 hr) was 0.09 μg/mL or μg/g, the “Tissue Concentrations, Plasma” value ([4]; male rats, 48 hr) was 0.54 μg/mL or μg/g and the tlast ([4]; male rats, Brain) was 12 h. For the same compound, the tlast ([4]; male rats, Liver) was 48 h, the tlast ([4]; male rats, Lung) was 48 h and the tlast ([4]; male rats, Pancreas) was 48 h. The tlast ([4]; male rats, Plasma) was 48 h, the concentration at 48 h ([4]; male, Sprague Dawley, rat, all tissues (liver, lung, pancreas, brain), rats, 48 hours after administration, read-out: concentrations in all tissues) was < 1000 ng/mL and the Kp at 1 h ([4]; male, Sprague Dawley, rat, brain, male rats, 1 hr, read-out: Tissue/Plasma Ratio, Brain) was 0.02. The Kp at 4 hr ([4]; male, Sprague Dawley, rat, brain, male rats, 4 hr, read-out: Tissue/Plasma Ratio, Brain) was 0.02, the Kp at 12 hr ([4]; male, Sprague Dawley, rat, brain, male rats, 12 hr, read-out: Tissue/Plasma Ratio, Brain) was 0.02 and the Kp ([4]; male, Sprague Dawley, rat, brain, male rats, Brain, read-out: Cmax Ratio (Tissue/Plasma)) was 0.02. It also gave a Kp ([4]; male, Sprague Dawley, rat, brain, rats, 1 to 48 hours after administration, read-out: tissue-to-plasma concentration ratios, brain) of 0.02, a Kp at 1 h ([4]; male, Sprague Dawley, rat, liver, male rats, 1 hr, read-out: Tissue/Plasma Ratio, Liver) of 0.73 and a Kp at 4 hr ([4]; male, Sprague Dawley, rat, liver, male rats, 4 hr, read-out: Tissue/Plasma Ratio, Liver) of 0.64. It also gave a Kp at 12 hr ([4]; male, Sprague Dawley, rat, liver, male rats, 12 hr, read-out: Tissue/Plasma Ratio, Liver) of 1.06, a Kp at 48 hr ([4]; male, Sprague Dawley, rat, liver, male rats, 48 hr, read-out: Tissue/Plasma Ratio, Liver) of 1.78 and a Kp ([4]; male, Sprague Dawley, rat, liver, male rats, Liver, read-out: Cmax Ratio (Tissue/Plasma)) of 0.64. It also gave a Kp ([4]; male, Sprague Dawley, rat, liver, rats, 1 to 48 hours after administration, read-out: tissue-to-plasma concentration ratios, liver) of 0.7 to 1.8, a Kp at 1 h ([4]; male, Sprague Dawley, rat, lung, male rats, 1 hr, read-out: Tissue/Plasma Ratio, Lung) of 0.19 and a Kp at 4 hr ([4]; male, Sprague Dawley, rat, lung, male rats, 4 hr, read-out: Tissue/Plasma Ratio, Lung) of 0.15. It also gave a Kp at 12 hr ([4]; male, Sprague Dawley, rat, lung, male rats, 12 hr, read-out: Tissue/Plasma Ratio, Lung) of 0.21, a Kp at 48 hr ([4]; male, Sprague Dawley, rat, lung, male rats, 48 hr, read-out: Tissue/Plasma Ratio, Lung) of 0.35 and a Kp ([4]; male, Sprague Dawley, rat, lung, male rats, Lung, read-out: Cmax Ratio (Tissue/Plasma)) of 0.15. It also gave a Kp ([4]; male, Sprague Dawley, rat, lung, rats, 1 to 48 hours after administration, read-out: tissue-to-plasma concentration ratios, lung) of 0.15 to 0.35, a Kp at 1 h ([4]; male, Sprague Dawley, rat, pancreas, male rats, 1 hr, read-out: Tissue/Plasma Ratio, Pancreas) of 0.13 and a Kp at 4 hr ([4]; male, Sprague Dawley, rat, pancreas, male rats, 4 hr, read-out: Tissue/Plasma Ratio, Pancreas) of 0.12. It also gave a Kp at 12 hr ([4]; male, Sprague Dawley, rat, pancreas, male rats, 12 hr, read-out: Tissue/Plasma Ratio, Pancreas) of 0.15, a Kp at 48 hr ([4]; male, Sprague Dawley, rat, pancreas, male rats, 48 hr, read-out: Tissue/Plasma Ratio, Pancreas) of 0.15 and a Kp ([4]; male, Sprague Dawley, rat, pancreas, male rats, Pancreas, read-out: Cmax Ratio (Tissue/Plasma)) of 0.12. The Kp ([4]; male, Sprague Dawley, rat, pancreas, rats, 1 to 48 hours after administration, read-out: tissue-to-plasma concentration ratios, pancreas) was 0.12 to 0.15, the inhibition at 10 µM (hERG) was 4% and the “degradation peaks by HPLC” value [5] was “No major degradation peaks were detected”. For the same compound, the Peak purity % ([5]; T(0)) was 98.81%, the Peak purity % ([5]; T(24 h)) was 98.24% and the “chemically stable, time” value ([5]; 24 h, 6 mg/mL) was “at least 24 hrs”.
